The values that follow come from patent US20050004126A1 (priority 2001, published 2005).

One assay deals with MMP-13CD (catalytic domain of collagenase 3) (Homo sapiens, UniProt P45452). The experiment in a line: Thiopeptolide hydrolysis assay, MMP-13.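 Also: inhibition of enzymatic thiopeptolide substrate cleavage (100 µM) in pH 6.0 MES buffer with CaCl2 and DTNB, comparing hydrolysis with versus without inhibitor.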 The settings on record: MMP 13 IC50 μM, Table III.
In turn, `CCOc1ccccc1COC(=O)c1cc2c(=O)n(Cc3ccc(C(=O)O)cc3)c(=O)n(C)c2s1` came in with an IC50 of 8 µM.

Consider `COC(=O)CCCCn1c(=O)c2cc(C(=O)OCc3ccccc3)sc2n(C)c1=O`, for which half-maximal inhibition (IC50) was put at 0.15 µM. In turn, `COc1ccc(CNC(=O)c2cc3c(=O)n(Cc4ccc5nocc5c4)c(=O)n(C)c3s2)cc1` had an IC50 of 0.018 µM. For `COc1cccc(CNC(=O)c2cc3c(=O)n(CS(=O)(=O)Cc4ccccc4)c(=O)n(C)c3s2)c1`, the half-inhibitory concentration (IC50) was determined as 1.7 µM. With `COc1cccc(CNC(=O)c2cc3c(=O)n(Cc4ccc5cocc5c4)c(=O)n(C)c3s2)c1`, the midpoint of inhibition, the IC50, lay at 0.0505 µM.

Staying with this assay, now noted: MMP13 IC50 μM, Table IVb.
In turn, `COc1ccc(CNC(=O)c2ccc3c(c2)c(=O)n(CCn2cccc2)c(=O)n3C)cc1` showed an IC50 of 1.45 µM.

As to `COc1ccc(CNC(=O)c2ccc3c(c2)c(=O)n(Cc2ccc(-c4ccccc4-c4nnn[nH]4)cc2)c(=O)n3C)cc1`, the IC50 worked out at 0.025 µM. On to `Cn1c(=O)n(CC=Cc2ccncc2)c(=O)c2cc(C(=O)NCc3ccncc3)ccc21`, for which the 50% inhibitory concentration (IC50) was determined as 0.24 µM. For the molecule `COc1ccc(CNC(=O)c2ccc3c(c2)c(=O)n(Cc2ccc(-c4nn[nH]n4)cc2)c(=O)n3C)cc1`, half-maximal inhibition (IC50) was put at 0.0009 µM. Still for that read-out and setting: for `Cn1c(=O)n(Cc2ccncc2)c(=O)c2cc(C(=O)NCc3ccc(O)cc3)ccc21` the value was 0.051 µM; for `C#CCn1c(=O)c2cc(C(=O)NCc3ccc(OC)cc3)ccc2n(C)c1=O`, 0.68 µM. `COc1ccc(CNC(=O)c2ccc3c(c2)c(=O)n(Cc2ccccn2)c(=O)n3C)cc1` showed an IC50 of 0.43 µM. In turn, `COc1ccc(CNC(=O)c2ccc3c(c2)c(=O)n(CC=C(C)C)c(=O)n3C)cc1` returned an IC50 of 0.2 µM.

With `COc1ccc(CNC(=O)c2ccc3c(c2)c(=O)n(Cc2ccc(-c4nnnn4C)cc2)c(=O)n3C)cc1`, the IC50 came out at 0.0023 µM. `COc1ccc(CNC(=O)c2ccc3c(c2)c(=O)n(Cc2ccc(-c4nnn(C)n4)cc2)c(=O)n3C)cc1`: the IC50 turned out to be 0.004 µM.

The molecule `COc1ccc(CNC(=O)c2ccc3c(c2)c(=O)n(Cc2ccc(-c4nc(C)no4)cc2)c(=O)n3C)cc1` registered an IC50 of 0.0029 µM.

Turning to `COc1ccc(CNC(=O)c2ccc3c(c2)c(=O)n(Cc2ccc(-c4noc(C)n4)cc2)c(=O)n3C)cc1`, it took 0.0049 µM to reach half-maximal inhibition (IC50). Regarding `CNC(=O)c1ccc(Cn2c(=O)c3cc(C(=O)NCc4ccc(OC)cc4)ccc3n(C)c2=O)cc1`, the half-maximal inhibitory concentration (IC50) came to 0.0064 µM. The same measure, in the same setting: next, `Cn1c(=O)c2cc(C(=O)NCc3ccc4c(c3)OCO4)cnc2n(C)c1=O`: 3.85 µM. The same measure, in the same setting: for `Cn1c(=O)c2cc(C(=O)NCc3ccc4c(c3)OCO4)ncc2n(C)c1=O` the value was 0.18 µM. The molecule `COc1ccc(CNC(=O)c2ccc3c(c2)c(=O)n(Cc2ccc(C(=O)O)c(Cl)c2)c(=O)n3C)cc1` registered an IC50 of 0.004 µM. Turning to `COc1ccc(CNC(=O)c2ccc3c(c2)c(=O)n(Cc2ccc(C(=O)O)c(O)c2)c(=O)n3C)cc1`, the half-maximal inhibitory concentration (IC50) was 0.0016 µM.

Molecule `COc1ccc(CNC(=O)c2ccc3c(c2)c(=O)n(Cc2ccc(C(=O)O)c(OC)c2)c(=O)n3C)cc1` gave an IC50 of 0.0045 µM. For `COc1ccc(CNC(=O)c2ccc3c(c2)c(=O)n(Cc2ccc(C(=O)O)c(C)c2)c(=O)n3C)cc1`, the IC50 amounted to 0.0018 µM. `C=CCn1c(=O)c2cc(C(=O)NCc3ccc(OC)cc3)ccc2n(C)c1=O` displayed an IC50 of 1.01 µM. Take `COc1ccc(CNC(=O)c2ccc3c(c2)c(=O)n(Cc2ccc4nonc4c2)c(=O)n3C)cc1`: the 50% inhibitory concentration (IC50) was found to be 0.018 µM. Still for that read-out and setting: for `Cn1c(=O)n(Cc2ccccc2)c(=O)c2cc(C(=O)NCc3ccc(C#N)cc3)ccc21` the value was 0.34 µM; for `Cn1c(=O)n(Cc2ccccc2)c(=O)c2cc(C(=O)NCCCSc3ccncc3)ccc21`, 0.026 µM; for `Cn1c(=O)n(Cc2ccccc2)c(=O)c2cc(C(=O)OC/C=C/c3ccncc3)ccc21`, 0.385 µM.

In turn, `Cn1c(=O)n(Cc2ccccc2)c(=O)c2cc(C(=O)OC/C=C/c3cccnc3)ccc21` came in with an IC50 of 0.34 µM. For `Cn1c(=O)n(Cc2ccccc2)c(=O)c2cc(C(=O)CSc3ccncc3)ccc21`, the IC50 is 3.4 µM. In turn, `COc1ccc(CNC(=O)c2ccc3c(c2)c(=O)n(CC(N)=O)c(=O)n3C)cc1` showed an IC50 of 1.95 µM. `COc1ccc(CNC(=O)c2ccc3c(c2)c(=O)n(CCS(=O)(=O)c2ccccc2)c(=O)n3C)cc1` came in with an IC50 of 0.84 µM. In turn, `COc1ccc(CNC(=O)c2ccc3c(c2)c(=O)n(CCOc2ccc(F)cc2)c(=O)n3C)cc1` had an IC50 of 0.15 µM.

Regarding `COc1ccc(CNC(=O)c2ccc3c(c2)c(=O)n(Cc2ccc(-c4ccccc4C#N)cc2)c(=O)n3C)cc1`, the midpoint of inhibition, the IC50, lay at 0.025 µM. On the same count and under the same terms, for `COc1ccc(CNC(=O)c2ccc3c(c2)c(=O)n(Cc2ccc(NC(C)=O)cc2)c(=O)n3C)cc1` the value was 0.009 µM.

For `COc1ccc(CNC(=O)c2ccc3c(c2)c(=O)n(Cc2ccc(CN)cc2)c(=O)n3C)cc1`, the IC50 stood at 0.07 µM. `COc1ccc(CNC(=O)c2cc3c(=O)n(Cc4ccc(C#N)cc4)c(=O)n(C)c3cn2)cc1`: it took 0.0011 µM to reach half-maximal inhibition (IC50).

The molecule `Cn1c(=O)n(Cc2ccc(C#N)cc2)c(=O)c2cc(C(=O)NCc3ccncc3)ccc21` had an IC50 of 0.053 µM. As to `COc1ccc(CNC(=O)c2ccc3c(c2)c(=O)n(Cc2ccc(N(C)C)cc2)c(=O)n3C)cc1`, the half-inhibitory concentration (IC50) amounted to 0.028 µM. Regarding `COc1ccc(CNC(=O)c2ccc3[nH]c(=O)n(Cc4ccc(N(C)C)cc4)c(=O)c3c2)cc1`, the IC50 is 0.075 µM. `Cn1c(=O)n(Cc2ccc(O)cc2)c(=O)c2cc(C(=O)NCc3ccncc3)ccc21` returned an IC50 of 0.057 µM.

In turn, `COc1ccc(Cn2c(=O)c3cc(C(=O)NCc4ccncc4)ccc3n(C)c2=O)cc1` had a half-maximal inhibitory concentration (IC50) of 0.06 µM. The same measure, in the same setting: next, `COc1ccc(CNC(=O)c2ccc3c(c2)c(=O)n(Cc2ccc(NS(C)(=O)=O)cc2)c(=O)n3C)cc1`: 0.004 µM; `COc1ccc(CNC(=O)c2ccc3c(c2)c(=O)n(Cc2ccc(N)nc2)c(=O)n3C)cc1`: 0.053 µM; `CCn1c(=O)n(Cc2ccc(C(=O)O)cc2)c(=O)c2cc(C(=O)NCc3ccc(OC)cc3)ccc21`: 0.003 µM. For the molecule `Cn1c(=O)n(Cc2ccc(C(=O)O)cc2)c(=O)c2cc(C(=O)NCc3ccncc3)ccc21`, the IC50 is 0.0057 µM. On to `CSc1ccc(CNC(=O)c2ccc3c(c2)c(=O)n(Cc2ccc(C(=O)O)cc2)c(=O)n3C)cc1`, for which the IC50 is 0.0029 µM. The molecule `COc1cccc(CNC(=O)c2cc3c(=O)n(Cc4ccc(C(=O)O)cc4)c(=O)n(C)c3cn2)c1` gave an IC50 of 0.0011 µM. Same read-out and setting: for `COc1cccc(CNC(=O)c2ccc3c(c2)c(=O)n(Cc2ccc(C(=O)O)cc2)c(=O)n3C)c1` the value was 0.0009 µM; for `Cn1c(=O)n(Cc2ccc(C(=O)O)cc2)c(=O)c2cc(C(=O)NCc3ccc(F)cc3)ccc21`, 0.0018 µM; for `COc1ccc(CNC(=O)c2cc3c(=O)n(Cc4ccc(C(=O)O)cc4)c(=O)n(C)c3cn2)cc1`, 0.00074 µM. `Cn1c(=O)n(Cc2ccc(C(=O)O)cc2)c(=O)c2cc(C(=O)NCc3ccc4c(c3)OCO4)ccc21` gave an IC50 of 0.0009 µM.

Regarding `Cn1c(=O)n(Cc2ccc(C(=O)O)cc2)c(=O)c2cc(C(=O)NCc3ccc4nonc4c3)ccc21`, the half-inhibitory concentration (IC50) amounted to 0.003 µM.

Regarding `COc1ccc(CNC(=O)c2ccc3c(c2)c(=O)n(Cc2ccc(-c4ccccc4C(=O)O)cc2)c(=O)n3C)cc1`, the IC50 is 0.013 µM.

As to `CCOC(=O)c1ccc(Cn2c(=O)c3cc(C(=O)NCc4ccc(OC)cc4)ccc3n(C)c2=O)cc1F`, the IC50 came out at 0.009 µM.

As for `CCOC(=O)COc1ccc(CNC(=O)c2ccc3c(c2)c(=O)n(Cc2ccccc2)c(=O)n3C)cc1`, the midpoint of inhibition, the IC50, lay at 0.72 µM. On the same count and under the same terms, next, `COC(=O)c1ccc(Cn2c(=O)c3cc(C(=O)NCc4ccc(OC)cc4)ccc3n(C)c2=O)cc1Cl`: 0.14 µM; `COC(=O)c1ccc(Cn2c(=O)c3cc(C(=O)NCc4ccc(OC)cc4)ccc3n(C)c2=O)cc1O`: 0.0043 µM; `COC(=O)c1ccc(Cn2c(=O)c3cc(C(=O)NCc4ccc(OC)cc4)ccc3n(C)c2=O)cc1OC`: 0.05 µM. For the molecule `COC(=O)c1ccc(Cn2c(=O)c3cc(C(=O)NCc4ccc(OC)cc4)ccc3n(C)c2=O)cc1C`, the half-maximal inhibitory concentration (IC50) is 0.0077 µM. Regarding `CCn1c(=O)n(Cc2ccc(C(=O)OC)cc2)c(=O)c2cc(C(=O)NCc3ccc(OC(F)(F)F)cc3)ccc21`, the midpoint of inhibition, the IC50, lay at 0.34 µM. `CCn1c(=O)n(Cc2ccc(C(=O)OC)cc2)c(=O)c2cc(C(=O)NCc3ccc(OC)cc3)ccc21` returned an IC50 of 0.031 µM. In the case of `COC(=O)c1ccc(Cn2c(=O)c3cc(C(=O)NCc4cc[n+]([O-])cc4)ccc3n(C)c2=O)cc1`, the IC50 came to 0.1 µM. `COC(=O)c1ccc(Cn2c(=O)c3cc(C(=O)NCc4ccncc4)ccc3n(C)c2=O)cc1`: it took 0.023 µM to reach half-maximal inhibition (IC50).

On to `COC(=O)c1ccc(Cn2c(=O)c3cc(C(=O)NCc4ccc(SC)cc4)ccc3n(C)c2=O)cc1`, for which it took 0.023 µM to reach half-maximal inhibition (IC50). In turn, `COC(=O)c1ccc(Cn2c(=O)c3cc(C(=O)NCc4cccc(OC)c4)ccc3n(C)c2=O)cc1` registered a half-inhibitory concentration (IC50) of 0.003 µM. As to `COC(=O)c1ccc(Cn2c(=O)c3cc(C(=O)NCc4ccc(F)cc4)ccc3n(C)c2=O)cc1`, the midpoint of inhibition, the IC50, lay at 0.01 µM.

As for `COC(=O)c1ccc(Cn2c(=O)[nH]c3ccc(C(=O)NCc4ccc(OC)cc4)cc3c2=O)cc1`, the half-maximal inhibitory concentration (IC50) worked out at 0.009 µM. Regarding `COC(=O)c1ccc(Cn2c(=O)c3cc(C(=O)NCc4ccc5c(c4)OCO5)ccc3n(C)c2=O)cc1`, the IC50 amounted to 0.0028 µM. For `COC(=O)c1ccc(Cn2c(=O)c3cc(C(=O)NCc4ccc5nonc5c4)ccc3n(C)c2=O)cc1`, half-maximal inhibition (IC50) was put at 0.035 µM.

On to `COC(=O)c1ccccc1-c1ccc(Cn2c(=O)c3cc(C(=O)NCc4ccc(OC)cc4)ccc3n(C)c2=O)cc1`, for which it took 0.084 µM to reach half-maximal inhibition (IC50). The molecule `COC(=O)Cc1ccc(Cn2c(=O)c3cc(C(=O)NCc4ccncc4)ccc3n(C)c2=O)cc1` came in with an IC50 of 0.02 µM. Regarding `COC(=O)Cn1c(=O)n(Cc2ccccc2)c(=O)c2cc(C(=O)NCc3ccc4c(c3)OCO4)ccc21`, the IC50 came out at 0.16 µM. On to `Cn1c(=O)n(Cc2ccc(CC(=O)O)cc2)c(=O)c2cc(C(=O)NCc3ccncc3)ccc21`, for which the 50% inhibitory concentration (IC50) came out at 0.011 µM. `Cn1c(=O)n(Cc2ccccc2)c(=O)c2cc(C(=O)NCc3ccc(OCC(=O)O)cc3)ccc21` came in with an IC50 of 2.9 µM.

Consider `O=C(O)Cn1c(=O)n(Cc2ccccc2)c(=O)c2cc(C(=O)NCc3ccc4c(c3)OCO4)ccc21`, for which the IC50 came out at 0.105 µM. With `COc1ccc(CNC(=O)c2ccc3c(c2)c(=O)n(Cc2ccc(NC(=O)OC(C)(C)C)nc2)c(=O)n3C)cc1`, the IC50 came out at 0.015 µM.
